Measured values: BindingDB's records for patent US20250313563 (The Broad Institute, 2025)
pIC50: −log10 of the molar value. Where “and” joins values, the source holds several entries; their conditions need not be identical. Equal entries are not always repeated.

Tests used:
[1] = biological target: Glycogen synthase kinase-3 beta (Homo sapiens, UniProt P49841); test: TR-FRET Assay
Procedure: (§1) The assay was performed in a white, 384 well, low volume, flat bottom plate (Grenier). […] The kinase activity was quenched with 2 μL of 250 mM EDTA. A 10 μL volume of 40 nM Strepavidin-d2, 2 nM Tb2+-pSer641 antibody in TR-FRET Detection Buffer (Invitrogen) was then added.

[2] = biological target: Glycogen synthase kinase-3 alpha (Homo sapiens, UniProt P49840); test: TR-FRET Assay
Procedure: as §1

Sequence of Glycogen synthase kinase-3 beta (P49841 whole entry): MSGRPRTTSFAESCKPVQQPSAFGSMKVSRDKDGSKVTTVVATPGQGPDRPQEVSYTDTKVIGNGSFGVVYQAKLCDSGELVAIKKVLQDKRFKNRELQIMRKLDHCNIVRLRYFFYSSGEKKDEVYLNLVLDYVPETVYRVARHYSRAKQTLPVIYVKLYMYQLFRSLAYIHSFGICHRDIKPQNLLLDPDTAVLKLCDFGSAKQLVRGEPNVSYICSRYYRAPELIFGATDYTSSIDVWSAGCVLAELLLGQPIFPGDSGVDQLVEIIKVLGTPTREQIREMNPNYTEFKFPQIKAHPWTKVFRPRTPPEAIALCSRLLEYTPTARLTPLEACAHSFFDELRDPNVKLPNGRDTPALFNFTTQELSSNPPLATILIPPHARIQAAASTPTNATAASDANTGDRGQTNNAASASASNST
Sequence of Glycogen synthase kinase-3 alpha (P49840 whole entry): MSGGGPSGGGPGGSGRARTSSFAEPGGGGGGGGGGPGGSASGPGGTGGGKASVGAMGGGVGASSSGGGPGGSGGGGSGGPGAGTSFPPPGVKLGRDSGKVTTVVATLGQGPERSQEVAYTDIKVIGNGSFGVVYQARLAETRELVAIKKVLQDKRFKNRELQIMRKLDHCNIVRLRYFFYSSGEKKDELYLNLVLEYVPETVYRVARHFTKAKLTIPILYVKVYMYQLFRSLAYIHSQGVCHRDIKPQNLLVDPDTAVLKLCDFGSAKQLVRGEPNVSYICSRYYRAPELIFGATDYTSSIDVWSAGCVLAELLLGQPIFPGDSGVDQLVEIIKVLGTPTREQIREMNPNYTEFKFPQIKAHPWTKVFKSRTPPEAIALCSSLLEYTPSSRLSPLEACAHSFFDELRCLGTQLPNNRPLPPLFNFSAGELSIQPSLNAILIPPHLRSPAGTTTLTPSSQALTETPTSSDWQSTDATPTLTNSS

| SMILES | pIC50 [1] | pIC50 [2] |
| --- | --- | --- |
| CC1(C)CC(=O)C2=C(C1)NC1N=NC(C(F)(F)F)=C1C21CCCc2ccccc21 (stereo unspecified) [US20250313563, Compound 790745] | > 7.00 | > 7.00 |
| CC[C@]1(c2cccc(C(F)(F)F)c2)C2=CN=NC2NC2=C1C(=O)CC(C)(C)C2 (stereo partly specified) [US20250313563, Compound 790754] | 5.30 to 6.00 | 6.00 to 7.00 |
| CC[C@@]1(c2cccc(C(F)(F)F)c2)C2=CN=NC2NC2=C1C(=O)CC(C)(C)C2 (stereo partly specified) [US20250313563, Compound 790755] | < 5.77 | 6.00 to 7.00 |
| CC(C)(C)CC1=C2C(N=N1)NC1=C(C(=O)CC(C)(C)C1)[C@@]21CCc2c(F)cccc21 (stereo partly specified) [US20250313563, Compound 791257] | > 7.00 | > 7.00 |
| CC[C@@]1(c2ccccc2)C2=CN=NC2NC2=C1C(=O)C[C@H](c1ccccc1)C2 (stereo partly specified) [US20250313563, Compound 791264] | < 5.30 | 6.00 to 7.00 |
| CC[C@]1(c2ccccc2)C2=CN=NC2NC2=C1C(=O)C[C@H](c1ccccc1)C2 (stereo partly specified) [US20250313563, Compound 791265] | < 5.30 | 5.30 to 6.00 |
| CC[C@@]1(c2ccccc2)C2=C(N=NC2)NC2=C1C(=O)[C@H]1CC[C@@H]2C1 [US20250313563, Compound 791266] | < 5.30 | < 5.30 |
| CC[C@]1(c2ccccc2)C2=C(N=NC2)NC2=C1C(=O)[C@H]1CC[C@@H]2C1 [US20250313563, Compound 791268] | < 5.30 | < 5.30 |
| CC[C@@]1(c2ccccc2)C2=C(N=NC2)NC2=C1C(=O)[C@@H]1CC[C@H]2C1 [US20250313563, Compound 791269] | 6.00 to 7.00 | 6.00 to 7.00 |
| CC[C@]1(c2ccccc2)C2=C(N=NC2)NC2=C1C(=O)[C@@H]1CC[C@H]2C1 [US20250313563, Compound 791270] | < 5.77 | 6.00 to 7.00 |
| CCC1(c2cccc(-c3ccncc3)c2)C2=CN=NC2NC2=C1C(=O)CC(C)(C)C2 (stereo unspecified) [US20250313563, Compound 791271] | 6.00 to 7.00 | > 7.00 |
| CCC1(c2cccc(-c3cccnc3)c2)C2=CN=NC2NC2=C1C(=O)CC(C)(C)C2 (stereo unspecified) [US20250313563, Compound 791272] | 6.00 to 7.00 | > 7.00 |
| CCC1(c2cccc(C3CCOCC3)c2)C2=CN=NC2NC2=C1C(=O)CC(C)(C)C2 (stereo unspecified) [US20250313563, Compound 791273] | 6.00 to 7.00 | > 7.00 |
| C[C@]1(c2ccccc2)C2=C(N=NC2)NC2=C1C(=O)CC1(CCCC1)C2 [US20250313563, Compound 792338] | 6.00 to 7.00 | > 7.00 |
| C[C@@]1(c2ccccc2)C2=C(N=NC2)NC2=C1C(=O)CC1(CCCC1)C2 [US20250313563, Compound 792339] | < 5.30 | < 5.77 |
| CC[C@@]1(c2ccccc2)C2=C(CC(C)(C)CC2=O)NC2N=NC(Br)=C21 (stereo partly specified) [US20250313563, Compound 792340] | > 7.00 and 6.00 to 7.00 | > 7.00 and 6.00 to 7.00 |
| CC[C@]1(c2ccccc2)C2=C(CC(C)(C)CC2=O)NC2N=NC(Br)=C21 (stereo partly specified) [US20250313563, Compound 792341] | 6.00 to 7.00 | 6.00 to 7.00 |
| COc1cccc(C2(C)C3=C(N=NC3)NC3=C2C(=O)CC(C)(C)C3)c1 (stereo unspecified) [US20250313563, Compound 792342] | 6.00 to 7.00 | 6.00 to 7.00 |
| CCC1(c2ccccc2)C2=C(CC(C)(C)CC2=O)NC2N=NC(C(F)(F)F)=C21 (stereo unspecified) [US20250313563, Compound 792343] | > 7.00 | > 7.00 |
| CC[C@]1(c2cccc(Cl)c2)C2=C(CC(C)(C)CC2=O)NC2N=NC(C(F)(F)F)=C21 (stereo partly specified) [US20250313563, Compound 801308] | > 7.00 and 6.00 to 7.00 | > 7.00 |
| CC[C@@]1(c2cccc(C(F)(F)F)c2)C2=CN=NC2NC2=C1C(=O)CC1(CCCC1)C2 (stereo partly specified) [US20250313563, Compound 801310] | < 5.78 | 6.00 to 7.00 |
| CC[C@]1(c2cccc(C(F)(F)F)c2)C2=CN=NC2NC2=C1C(=O)CC1(CCCC1)C2 (stereo partly specified) [US20250313563, Compound 801311] | > 7.00 and 6.00 to 7.00 | > 7.00 |
| CC[C@@]1(c2cccc(C)c2)C2=CN=NC2NC2=C1C(=O)CC1(CCCC1)C2 (stereo partly specified) [US20250313563, Compound 801312] | 6.00 to 7.00 | > 7.00 |
| CC[C@]1(c2cccc(C)c2)C2=CN=NC2NC2=C1C(=O)CC1(CCCC1)C2 (stereo partly specified) [US20250313563, Compound 801313] | < 5.30 | < 5.78 |

| SMILES | pIC50 [1] | pIC50 [2] |
| --- | --- | --- |
| CC[C@@]1(c2cccc(Cl)c2)C2=C(CC(C)(C)CC2=O)NC2N=NC(Br)=C21 (stereo partly specified) [US20250313563, Compound 801315] | 6.00 to 7.00 | 6.00 to 7.00 |
| CCC1(c2cccc(C3CC3)c2)C2=CN=NC2NC2=C1C(=O)CC(C)(C)C2 (stereo unspecified) [US20250313563, Compound 801316] | > 7.00 | > 7.00 |
| CCC1(c2cccc(N3CCCC3)c2)C2=CN=NC2NC2=C1C(=O)CC(C)(C)C2 (stereo unspecified) [US20250313563, Compound 801317] | 6.00 to 7.00 | 6.00 to 7.00 |
| CCC1(c2cccc(N3CCOCC3)c2)C2=CN=NC2NC2=C1C(=O)CC(C)(C)C2 (stereo unspecified) [US20250313563, Compound 801318] | < 5.78 | 6.00 to 7.00 |
| CCC1(c2cccc(N(C)C(C)=O)c2)C2=CN=NC2NC2=C1C(=O)CC(C)(C)C2 (stereo unspecified) [US20250313563, Compound 801319] | > 7.00 | > 7.00 |
| CCC1(c2cccc(N3CCCCC3)c2)C2=CN=NC2NC2=C1C(=O)CC(C)(C)C2 (stereo unspecified) [US20250313563, Compound 801320] | 6.00 to 7.00 | 6.00 to 7.00 |
| CCC1(c2cccc(C(F)(F)F)c2)C2=C(CC(C)(C)CC2=O)NC2N=NC(C)=C21 (stereo unspecified) [US20250313563, Compound 801321] | > 7.00 | > 7.00 |
| CCC1(c2cccc(C(C)C)c2)C2=CN=NC2NC2=C1C(=O)CC(C)(C)C2 (stereo unspecified) [US20250313563, Compound 801322] | 6.00 to 7.00 | > 7.00 |
| CCC1(c2cccc(COC)c2)C2=CN=NC2NC2=C1C(=O)CC(C)(C)C2 (stereo unspecified) [US20250313563, Compound 801323] | 6.00 to 7.00 | > 7.00 |
| CCC1(c2cccc(Br)c2)C2=C(CC(C)(C)CC2=O)NC2N=NC(C(F)(F)F)=C21 (stereo unspecified) [US20250313563, Compound 801324] | > 7.00 | > 7.00 |
| CC(C)(C)CC1=C2C(N=N1)NC1=C(C(=O)CC(C)(C)C1)[C@@]21CCc2cccc(F)c21 (stereo partly specified) [US20250313563, Compound 801352] | > 7.00 | 6.00 to 7.00 |
| CC1(C)CC(=O)C2=C(C1)NC1N=NC(C(F)(F)F)=C1C21CCc2c(F)cccc21 (stereo unspecified) [US20250313563, Compound 801356] | > 7.00 | > 7.00 |
| CC1(C)CC(=O)C2=C(C1)NC1=C(CN=N1)C21CCc2c(F)cccc21 (stereo unspecified) [US20250313563, Compound 801357] | < 5.78 | 6.00 to 7.00 |
| CC1(C)CC(=O)C2=C(C1)NC1N=NC(Br)=C1C21CCc2c(F)cccc21 (stereo unspecified) [US20250313563, Compound 801358] | > 7.00 | > 7.00 |
| CC1(C)CC(=O)C2=C(C1)NC1=C(CN=N1)[C@@]2(C)c1cccc(-c2ccccc2)c1 [US20250313563, Compound 801366] | < 5.30 | < 5.30 |
| CC1(C)CC(=O)C2=C(C1)NC1=C(CN=N1)[C@]2(C)c1cccc(-c2ccccc2)c1 [US20250313563, Compound 801367] | 6.00 to 7.00 | > 7.00 |
| CC[C@@]1(c2cccc(-c3ccccc3)c2)C2=CN=NC2NC2=C1C(=O)CC(C)(C)C2 (stereo partly specified) [US20250313563, Compound 801368] | 6.00 to 7.00 | > 7.00 |
| CCC1(c2cccc(C(F)(F)F)c2)C2=CN=NC2NC2=C1C(=O)CC(C)C2 (stereo unspecified) [US20250313563, Compound 801397] | 6.00 to 7.00 | > 7.00 |
| CCC1(c2ccccc2)C2=C(N=NC2)NC2=C1C(=O)CSC2 (stereo unspecified) [US20250313563, Compound 801406] | < 5.30 | 5.30 to 6.00 |
| CC[C@]1(c2cccc(-c3ccncc3)c2)C2=CN=NC2NC2=C1C(=O)CC(C)(C)C2 (stereo partly specified) [US20250313563, Compound 801412] | < 5.30 | < 5.30 |
| CC[C@@]1(c2cccc(-c3ccncc3)c2)C2=CN=NC2NC2=C1C(=O)CC(C)(C)C2 (stereo partly specified) [US20250313563, Compound 801413] | 5.30 to 6.00 | 6.00 to 7.00 |
| CCC1(c2cccc(-c3cnn(C)c3)c2)C2=C(CC(C)(C)CC2=O)NC2N=NC(C(F)(F)F)=C21 (stereo unspecified) [US20250313563, Compound 801445] | > 7.00 | > 7.00 |
| CCC1(c2cccc(OCCOC)c2)C2=CN=NC2NC2=C1C(=O)CC(C)(C)C2 (stereo unspecified) [US20250313563, Compound 801446] | < 5.78 | 6.00 to 7.00 |
| CCC1(c2cccc(OC)c2)C2=CN=NC2NC2=C1C(=O)CC(C)(C)C2 (stereo unspecified) [US20250313563, Compound 801447] | 5.30 to 6.00 | 6.00 to 7.00 |
